Experimental data: PubChem BioAssay (NCI)
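Dose response: 5 concentrations. Exposure: 48 h. Format: 96-well plates. Endpoint: linear interpolation; highest concentration if not reached. TGI denotes the concentration required for complete inhibition of growth.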

Key:
Assay in all cases: NCI tumour cell line growth inhibition, 48 h
RPMI-8226 leukemia = test system: RPMI-8226 leukemia
COLO 205 colon = test system: COLO 205 colon
HCT-15 colon = test system: HCT-15 colon
KM12 colon = test system: KM12 colon
A549 NSCLC = test system: A549 NSCLC
HOP-92 NSCLC = test system: HOP-92 NSCLC
SNB-19 CNS = test system: SNB-19 CNS
SK-MEL-2 melanoma = test system: SK-MEL-2 melanoma
SF-539 CNS = test system: SF-539 CNS
786-0 renal = test system: 786-0 renal

SMILES	TGI (RPMI-8226 leukemia) [µM]	TGI (COLO 205 colon) [µM]	TGI (HCT-15 colon) [µM]	TGI (KM12 colon) [µM]	TGI (A549 NSCLC) [µM]	TGI (HOP-92 NSCLC) [µM]	TGI (SNB-19 CNS) [µM]	TGI (SK-MEL-2 melanoma) [µM]	TGI (SF-539 CNS) [µM]	TGI (786-0 renal) [µM]
Nc1cc2ncnc(Nc3cccc(Br)c3)c2cn1	> 100	> 100	> 100	63.9	> 100	> 100	> 100	69.7	> 100	> 100
Cc1cc2nc3c(N)nn(CCN(C)C)c3nc2cc1C	> 100	> 100	> 100	> 100	> 100	> 100	> 100	> 100	> 100	> 100
CC(=O)Nc1nc(C)c(S(=O)(=O)NC(=O)N2c3ccccc3CCc3ccccc32)s1	> 100	> 100	> 100	> 100	> 100	> 100	71.9	> 100	> 100	> 100
O=c1[nH]nc(N/N=C\c2ccc(Cl)cc2)c2ccccc12	> 100	45.9	34.9	52.3	41.6	34.5	43.1	37	47.6	30.6
CCn1c(SCc2nnc(Nc3ccccc3)s2)nc2ccccc2c1=O	37.1	43.2	> 100	> 48.9	19.3	9.11	13.4	32	19.3	3.97
CCOC(=O)c1nc2ccccc2nc1Nc1ccc(F)cc1	> 100	> 100	> 100	> 100	> 100	43.9	46.6	> 83.4	> 58.9	> 72.2
COc1c(-c2ccc(F)cc2)oc2cc(O)cc(O)c2c1=O	> 100	36.7	38	98.4	> 100	> 100	> 100	64.3	39.7	99.2
CCCC(CC)c1cc(O)c(O)cc1C(CC)CCC (stereo not given)	> 10	> 10	> 10	> 10	> 10	> 10	> 10	> 10	> 10	> 10
Cn1c(=O)[nH]n(-c2ccc3ccccc3c2)c1=O	> 100	> 100	> 100	> 100	> 100	> 100	> 100	> 100	> 100	> 100
CCOC(=O)COC1=Nc2cc(OC)c(OC)c3nc(Cl)cc(c23)C1=O	> 100	3.88	6.16	28.6	18.3	3.22	22.1	4.09	3.87	3.04
COc1cccc(OC/C(N=Cc2ccncc2)=N/NC(=O)c2ccncc2)c1	> 100	> 100	> 100	> 100	> 100	> 100	> 100	> 100	> 100	> 100
CN1CCCC(OC(=O)c2cc3cc(CCl)ccc3oc2=O)C1 (stereo not given)	89.1	35.7	51.9	68.3	> 100	30.5	> 100	33.9	> 100	58.4
COCCN(C(=O)c1ccccc1)C1CCC(=O)c2[nH]c3ccccc3c21 (stereo not given)	58.6	31.5	31.9	21.9	31.2	25	24.3	17.8	24.3	11.9
CC(C)(C)C(=O)O[C@H]1C=C[C@@H](O)[C@@H]2[C@H]1[C@@H]1C=C[C@H]2C1	83	> 100	83.5	12.4	> 100	> 100	> 100	> 100	92.9	> 100
CC(C)Oc1cc2c(cc1O)CC[C@@H]1[C@@H]2CC[C@]2(C)[C@@H](O)CC[C@@H]12	35.7	40.7	19.1	16.5	65.9	33.5	31.8	> 24.8	6.93	36.1
CC1Cc2c(cc(N)nc2Br)NC1=O (stereo not given)	> 100	> 100	> 100	> 100	> 100	> 100	> 100	> 100	> 100	> 100
Cc1cccc(=O)c([O-])c1.Cc1cccc(=O)c([O-])c1.Cc1cccc(=O)c([O-])c1.Cc1cccc(=O)c([O-])c1.[Th+4]	> 100	> 100	> 100	> 72.7	> 100	> 68.9	> 100	97.5	54.3	> 78.5
CCCCCCCCCCC[N+]1(Cc2ccccc2)CC2CCN(Cc3ccccc3)CC2C1 (stereo not given)	0.378	2.18	2.96	0.902	2.43	1.62	1.49	0.724	2.45	2.21
Clc1ccc(Cc2nc3ccccc3nc2-c2cccc(Cl)c2)cc1	2.14	7.88	3.46	16.5	32.8	5.14	3.85	8.11	4.92	3.63
C#Cc1cccc(Nc2ncnc3cc(OCCOC)c(OCCOC)cc23)c1	> 74.7	> 100	> 100	> 100	> 100	60.2	92	50.6	81	48
CCn1c(O)c(C(=O)NC(C)c2ccc([N+](=O)[O-])cc2)c(=O)n(CC)c1=S (stereo not given)	15	3.29	10.7	5.58	11.5	8.48	10.8	2.72	13.4	11.7
CC(=O)c1cc(S(=O)(=O)c2ccc(O)c(C(C)=O)c2)ccc1O	> 100	> 100	> 100	> 100	> 100	> 100	> 100	> 100	> 100	> 100
Cc1sc2nc3n(sc4nc5sc(C)c(C)c5c(=O)n43)c(=O)c2c1C	> 100	> 100	> 100	> 100	> 100	> 100	> 100	> 100	> 100	> 100
COC(=O)NC(Nc1ccc(C)cc1)(C(F)(F)F)C(F)(F)F	> 100	> 100	> 100	> 100	> 100	> 100	> 100	> 100	> 100	> 100
Cc1ccc(C2(N3CCOCC3)OC(C)(C)c3cccc4cccc2c34)cc1 (stereo not given)	37.9	31	40	57.2	29	25.5	32.6	30.5	34.8	32.4
Cc1cc(C)c(C#N)c(SC(=S)NC(=O)c2ccccc2)n1	> 100	> 100	> 100	> 100	> 100	> 100	> 100	> 100	> 100	> 100
C=C(C)[C@@H]1CC[C@]2(C(=O)OC3OC(COC4OC(CO)C(OC5OC(C)C(O)C(O)C5O)C(O)C4O)C(O)C(O)C3O)CC[C@]3(C)[C@H](CC[C@@H]4[C@@]5(C)CC[C@H](O)[C@@](C)(CO)[C@@H]5CC[C@]43C)[C@@H]12 (stereo not given in full)	> 5.92	3.2	> 9.68	> 10	> 10	> 6.7	> 10	6.22	> 7.72	> 10
Cc1ccc(C(=O)NN=C(/N=N/c2cccc(C)c2)c2ccc(N(C)C)cc2)cc1	> 100	> 100	> 100	> 100	> 100	> 100	> 100	> 100	> 100	> 100
